Structures are written as SMILES.

In one experiment the test system is hepatic NKT cells. The experiment can be described thus: In vivo bile acids feeding, hepatic NKT cell levels. The settings on record: ABX-administered mice, oral gavage 6 mg/15 g body weight at 48, 24 and 16 hrs.
Another experiment concerns EL4 tumor cells. Nature of the experiment: Tail vein EL4 tumor cell injection, liver tumors in wild-type, CXCR6 and CD1d knockout mice. The experiment is classed as in vivo. The settings on record: ABX-administered CXCR6−/− mice. An excerpt: Measurements were taken 3 weeks after injection. Cumulative data are shown. n=10 for Wt-H2O, 7 for Wt-ABX, 4 for CXCR6^−/−-H2O, 5 for CXCR6^−/−-ABX, 5 for CD1d^−/−-H2O, 4 for CD1d^−/−-ABX. p<0.05, two-way ANOVA.
(§1) B16-F1 and A20 cells were purchased from ATCC (Manassas, Va., USA). EL4 cells were used as described (Ma et al., J. Leukoc. Biol., 92: 1199-1206 (2012), incorporated by reference herein). 1×10^6 EL4 tumor cells were given by subcutaneous (s.c.) or tail vein injection, 3×10^5 B16-F1 tumor cells were given by intrasplenic injection as described before (Eggert et al., Cancer Cell, 30: 533-547 (2016), incorporated by reference herein), and 1×10^6 A20 tumor cells were given by tail vein injection.
NKT cells are known to have anti-tumor function and can directly kill CD1d expressing tumors. All three tested tumor models (B16, EL4 and A20) expressed […] at different levels (FIG. 22). To investigate the role of NKT cells in this setting, CD1d knockout and CXCR6 knockout mice were used. CD1d knockout mice completely lack NKT cells, while CXCR6 knockout mice have a selective NKT deficiency in the liver. Loss of hepatic NKT cells in these mice was confirmed (FIG. 23). […]
EL4 tumor cells were injected into ABX-pre-administered CXCR6^−/− mice. ω-MCA was given as described above. Liver surface tumors were counted three weeks after tumor injection.

The subject of another experiment is A20 tumor cells. The experiment can be described thus: Tail vein A20 tumor cell injection, liver metastasis. The experiment is classed as in vivo, BALB/c mice. The settings on record: A20 tumor-bearing antibiotic (vancomycin)-administered mice, ω-MCA feeding.
Description: Liver metastases were counted three weeks after injection. Cumulative data are shown. n=8, p<0.05, Student's t-test.
FIG. 7B is a dot plot showing liver weight of liver sections in mice that received tail vein injection of A20 tumor cells. n=4, p<0.05, Student's t-test.
as §1
Mice were kept on ABX cocktail and fresh ABX was replaced every other day. Mice were fed with bile acids by oral gavage 48, 24 and 16 hrs prior to sacrifice. For A20 tumor bearing mice, ω-MCA were given 3 times/week. ω-MCA and CDCA were dissolved in corn oil and given at the dose of 6 mg/15 g body weight.
A20 tumor cells were i.v. injected into vancomycin-(Vanco) or H2O-administered BALB/c mice. ω-MCA (5 mg/mouse) was given by oral gavage three times/week. aCD4 antibody (GK1.5) was given i.p. at the dose of 500 μg/mouse weekly to deplete […] cells. FIGS. 30A and 30B show the results after 3 weeks.

For a further experiment, the system named is CXCL16. The experiment can be described thus: CXCL16 mRNA in primary murine LSECs administered bile acids. The experiment is classed as cell-based, mice. To be noted: primary murine LSECs in vitro, 24 hours. An excerpt:
FIG. 28E is a dot plot showing CXCL16 mRNA levels of isolated LSECs administered different bile acids, in accordance with embodiments of the invention. n=5, p<0.05, one-way ANOVA.
FIG. 28F is a dot plot showing CXCL16 mRNA levels of isolated LSECs administered a combination of T-b-MCA with T-w-MCA or ω-MCA. n=5, p<0.05, one-way ANOVA.
Primary mice liver sinusoidal endothelia cells were isolated as previously described (Limmer et al., Nat. Med., 6: 1348-1354 (2000), incorporated by reference herein). Briefly, mice were CO2 euthanized, and then the portal vein was cannulated, and the liver was perfused with 0.05% collagenase in Ca^2+ deprived medium. Liver cells were dissociated, and parenchymal cells were killed by incubation in 0.04% collagenase in Gey's balanced salt solution at 37° C. for 15 minutes. Then density gradient centrifugation was performed using Nycodenz solution at the final solution of 1.089 g/cm^3. Liver sinusoidal endothelial cells (LSEC) were isolated using anti-LSEC microbeads (Miltenyi, Bergisch Gladbach, Germany) according to the manufacturer's instructions. LSECs or the human SK-HEP1 cell line (ATCC, HTB-52) were administered different bile acids for 24 hours. Gene expression was analyzed by real-time PCR. […]

With `C[C@H](CCC(=O)O)[C@H]1CC[C@H]2[C@@H]3[C@@H](O)[C@H](O)[C@@H]4C[C@H](O)CC[C@]4(C)[C@H]3CC[C@]12C` [ω-MCA, ω-muricholic acid], in the experiment on hepatic NKT cells, the “hepatic NKT accumulation” value is “effectively reversed hepatic NKT accumulation”. Moreover, the liver tumor development result in the experiment with EL4 tumor cells is “failed to affect”. In addition, the liver tumor growth entry in the experiment on A20 tumor cells is “reversed the inhibition of liver tumor growth”. Besides, the “cxcl16 mRNA expression” value in the experiment on CXCL16 is given as “decreased”.

The record behind these values is patent US11771737B2, “Treating or preventing adverse liver conditions” (priority 2017, dated 2023).
